Assay results taken from patent US20240002416A1 (Rheinische-Friedrich-Wilhelms-Universität Bonn, priority 2020, published 2024).
Where two headings read alike, the source gives them in different places.

Legend:
[1] = target: T1, human MRGPRX4-83L (Homo sapiens, UniProt Q96LA9); test: β-arrestin assay (CHO β-arrestin ARMS1-ProLink 2 human MRGPRX4 83L); assay type: cell-based; details: for IC50: inhibition of the effect of 2.6 μM B-16; for EC50: β-arrestin recruitment, CHO cells, MRGPRX4-83L, read-out: EC50 ± SEM; for Emax: efficacy based on maximal effect of 100 nM B-16 (set as 100%), read-out: Emax
T1 construct: host or cells: CHO β-arrestin cells
Description: (§1) For β-arrestin recruitment assays, recombinant Chinese hamster ovary (CHO) cells expressing the human MRGPRX4 were used (DiscoverX/Eurofins) which allowed to measure β-galactosidase complementation upon β-arrestin recruitment. For calcium mobilization assays, recombinant astrocytes expressing MRGPX4-83L, or LN229 glioblastoma cells natively expressing the MRGPRX4-83S, were used.
(§2) The assays were performed as previously described for other rhodopsin-like GPCRs (Müller, C.E.; 8-Benzamidochromen-4-one-2-carboxylic acids: potent and selective agonists for the orphan G protein-coupled receptor GPR35. J. Med. Chem. 2013, 56:5182-97; Müller, C.E. Molecular Recognition of Agonists and Antagonists by the Nucleotide-Activated G Protein-Coupled P2Y2 Receptor. J. Med. Chem. 2017, 60:8425-8440).

[2] = target: T1, human MRGPRX4-83L; test: Calcium assay (human MRGPRX4 83L), recombinant astrocytes; assay type: cell-based; details: for EC50: calcium mobilization, MRGPRX4-83L, read-out: EC50 ± SEM; for Emax: efficacy based on maximal effect of 1 μM B-16 (set as 100%), read-out: Emax
Description: as §1, §2

[3] = target: MRGPRX4-83S (Homo sapiens, UniProt Q96LA9, L83S); test: β-arrestin assay (CHO β-arrestin human MRGPRX4-83S); assay type: cell-based; set-up: host or cells: CHO β-arrestin cells; details: for EC50: β-arrestin recruitment, CHO cells, MRGPRX4-83S, read-out: EC50 ± SEM; for Emax: efficacy based on 100 nM B-16 (set as 100%), read-out: Emax
Description: as §1, §2

[4] = Table 1, means of 3-4 experiments

T1 sequence (Q96LA9 whole entry): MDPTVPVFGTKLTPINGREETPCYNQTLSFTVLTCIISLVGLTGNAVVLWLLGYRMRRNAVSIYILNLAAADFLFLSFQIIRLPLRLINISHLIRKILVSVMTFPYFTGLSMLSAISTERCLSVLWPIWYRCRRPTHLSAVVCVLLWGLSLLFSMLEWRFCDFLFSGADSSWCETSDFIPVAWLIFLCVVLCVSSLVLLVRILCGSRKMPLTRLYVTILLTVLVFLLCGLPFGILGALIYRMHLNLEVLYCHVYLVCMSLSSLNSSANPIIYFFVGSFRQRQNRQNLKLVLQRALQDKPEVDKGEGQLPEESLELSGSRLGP
Chain of MRGPRX4-83S (Q96LA9 whole entry L83S): as the sequence (Q96LA9 whole entry) above, with L83S counted along it

| SMILES | IC50 ([1]; Table 1) [µM] | EC50 [1, 4] [µM] | IC50 [2] [µM] | EC50 ([2]; Table 1) [µM] | melting point [°C] | EC50 ([3]; Table 2) [µM] | other results |
| --- | --- | --- | --- | --- | --- | --- | --- |
| C#CCn1c(=O)c2[nH]c(CCc3ccccc3Br)nc2n(CCCCS(N)(=O)=O)c1=O [F-1, 4-(8-(2-Bromophenethyl)-2,6-dioxo-1-(prop-2-yn-1-yl)-1,2,6,7-tetrahydro-3H-purin-3-yl)butane-1-sulfonamide] | > 10 | > 10 | > 10 | > 10 | 216 to 219 | > 10 |  |
| CCOP(=O)(CCCCn1c(=O)n(CC)c(=O)c2[nH]c(C3CC3c3ccccc3)nc21)OCC (stereo not shown) [C-9, Diethyl (4-(1-ethyl-2,6-dioxo-8-(2-phenylcyclopropyl)-1,2,6,7-tetrahydro-3H-purin-3-yl)butyl)phosphonate] | > 10 | > 10 | > 10 | > 10 | 124 to 126 | > 10 |  |
| C#CCn1c(=O)c2[nH]c(CCc3ccccc3OC)nc2n(CCCCC(=O)O)c1=O [G-1, 5-(8-(2-Methoxyphenethyl)-2,6-dioxo-1-(prop-2-yn-1-yl)-1,2,6,7-tetrahydro-3H-purin-3-yl)pentanoic acid] | > 10 | > 10 | > 10 | > 10 | 196 to 198 | > 10 |  |
| C#CCn1c(=O)c2[nH]c(CCc3ccccc3Cl)nc2n(CCCCP(=O)(O)O)c1=O [B-9, (4-(8-(2-Chlorophenethyl)-2,6-dioxo-1-(prop-2-yn-1-yl)-1,2,6,7-tetrahydro-3H-purin-3-yl)butyl)phosphonic acid] |  | 1.26 ± 0.27 |  | 0.0552 ± 0.0017 | 207 to 209 | 0.00345 ± 0.00028 | Emax ([1]; Table 1): 107%; Emax ([2]; Table 1): 107%; Emax ([3]; Table 2): 116% |
| C#CCn1c(=O)c2[nH]c(CCc3ccccc3OC)nc2n(CCCCP(=O)(O)OCC)c1=O [D-2, Ethyl hydrogen (4-(8-(2-methoxyphenethyl)-2,6-dioxo-1-(prop-2-yn-1-yl)-1,2,6,7-tetrahydro-3H-purin-3-yl)butyl)phosphonate] |  | 0.113 ± 0.033 |  | 3.32 ± 0.61 | 172 to 174 | 0.000493 ± 0.000104 | Emax ([1]; Table 1): 122%; Emax ([2]; Table 1): 103%; Emax ([3]; Table 2): 141% |
| CCOP(=O)(CCCCn1c(=O)n(CC2CCC2)c(=O)c2[nH]c(CCc3cccc(OC)c3)nc21)OCC [C-7, Diethyl (4-(1-(cyclobutylmethyl)-8-(3-methoxyphenethyl)-2,6-dioxo-1,2,6,7-tetrahydro-3H-purin-3-yl)butyl)phosphonate] | > 10 | > 10 | > 10 | > 10 | 82 to 84 | > 10 |  |
| C#CCn1c(=O)c2c(nc(CCc3ccccc3OC)n2C)n(CCCCP(=O)(OCC)OCC)c1=O [C-2, Diethyl (4-(8-(2-methoxyphenethyl)-7-methyl-2,6-dioxo-1-(prop-2-yn-1-yl)-1,2,6,7-tetrahydro-3H-purin-3-yl)butyl)phosphonate] | > 10 | > 10 | > 10 | > 10 | 124 to 146 | > 10 |  |
| C#CCn1c(=O)c2[nH]c(CCc3ccccc3OC)nc2n(CCCCP(=O)(OCC)OCC)c1=O [C-1, Diethyl (4-(8-(2-Methoxyphenethyl)-2,6-dioxo-1-(prop-2-yn-1-yl)-1,2,6,7-tetrahydro-3H-purin-3-yl)butyl)phosphonate] | > 10 | > 10 | > 10 | > 10 | 104 to 106 | > 10 |  |
| C#CCn1c(=O)c2c(nc(CCc3cccc(C(F)(F)F)c3)n2C)n(CCCCP(=O)(OCC)OCC)c1=O [C-5, Diethyl (4-(7-methyl-2,6-dioxo-1-(prop-2-yn-1-yl)-8-(3-(trifluoromethyl)phenethyl)-1,2,6,7-tetrahydro-3H-purin-3-yl)butyl)phosphonate] | > 10 | > 10 | > 10 | > 10 | 121 to 124 | > 10 |  |
| C#CCn1c(=O)c2[nH]c(CCc3ccc(OC)c(OC)c3)nc2n(CCCCP(=O)(O)O)c1=O [B-11, (4-(8-(3,4-Dimethoxyphenethyl)-2,6-dioxo-1-(prop-2-yn-1-yl)-1,2,6,7-tetrahydro-3H-purin-3-yl)butyl)phosphonic acid] | 50.5 ± 1.4 | > 10 |  | 28 ± 3.3 | 254 to 256 |  | Emax ([2]; Table 1): 100%; IC50 [3]: 9.72 ± 1.05 µM |
| C#CCn1c(=O)c2[nH]c(CCc3cccc(C)c3)nc2n(CCCCP(=O)(OCC)OCC)c1=O [C-4, Diethyl (4-(8-(3-methylphenethyl)-2,6-dioxo-1-(prop-2-yn-1-yl)-1,2,6,7-tetrahydro-3H-purin-3-yl)butyl)phosphonate] | > 10 | > 10 | > 10 | > 10 | 111 to 113 | > 10 |  |
| C#CCn1c(=O)c2[nH]c(CCc3ccccc3Br)nc2n(CCCCP(=O)(O)O)c1=O [B-8, (4-(8-(2-Bromophenethyl)-2,6-dioxo-1-(prop-2-yn-1-yl)-1,2,6,7-tetrahydro-3H-purin-3-yl)butyl)phosphonic acid] |  | 0.243 ± 0.045 |  | 0.0227 ± 0.0072 | 209 to 212 | 0.00315 ± 0.00082 | Emax ([1]; Table 1): 98%; Emax ([2]; Table 1): 114%; Emax ([3]; Table 2): 143% |
| C#CCn1c(=O)c2c(nc(CCc3ccccc3F)n2CC)n(CCCCP(=O)(O)O)c1=O [B-30, (4-(7-Ethyl-8-(2-fluorophenethyl)-2,6-dioxo-1-(prop-2-yn-1-yl)-1,2,6,7-tetrahydro-3H-purin-3-yl)butyl)phosphonic acid] |  |  |  |  | 197 to 199 |  | Emax ([1]; Table 4): 96%; EC50 ([1]; Table 4): 0.262 ± 0.097 µM; EC50 ([2]; Table 4): 0.0155 ± 0.0125 µM; Emax ([2]; Table 4): 97% |
| C#CCn1c(=O)c2c(nc(CCc3ccccc3Br)n2CCC)n(CCCCP(=O)(O)O)c1=O [B-22, (4-(8-(2-Bromophenethyl)-2,6-dioxo-1-(prop-2-yn-1-yl)-7-propyl-1,2,6,7-tetrahydro-3H-purin-3-yl)butyl)phosphonic acid] |  | 0.208 ± 0.049 |  | 0.0178 ± 0.0062 | 178 to 181 |  | Emax ([1]; Table 1): 176%; Emax ([2]; Table 1): 119% |
| C#CCn1c(=O)c2[nH]c(CCc3ccccc3F)nc2n(CCCCP(=O)(O)O)c1=O [B-24, (4-(8-(2-Fluorophenethyl)-2,6-dioxo-1-(prop-2-yn-1-yl)-1,2,6,7-tetrahydro-3H-purin-3-yl)butyl) phosphonic acid] |  |  |  |  | 239 to 241 |  | Emax ([1]; Table 4): 98%; EC50 ([1]; Table 4): 8.19 ± 1.81 µM; EC50 ([2]; Table 4): 1.42 ± 0.29 µM; Emax ([2]; Table 4): 100% |
| C#CCn1c(=O)c2[nH]c(CCc3ccc(-c4ccccc4)cc3)nc2n(CCCCP(=O)(O)O)c1=O [B-27, (4-(8-(2-([1,1′-Biphenyl]-4-yl)ethyl)-2,6-dioxo-1-(prop-2-yn-1-yl)-1,2,6,7-tetrahydro-3H-purin-3-yl)butyl)phosphonic acid] |  |  |  |  | 212 to 214 |  | Emax ([3]; Table 3): 68%; EC50 ([3]; Table 3): 0.0367 ± 0.0028 µM |
| C#CCn1c(=O)c2c(nc(CCc3ccccc3Br)n2C)n(CCCCCP(=O)(O)O)c1=O [B-53, (5-(8-(2-Bromophenethyl)-7-methyl-2,6-dioxo-1-(prop-2-yn-1-yl)-1,2,6,7-tetrahydro-3H-purin-3-yl)pentyl)phosphonic acid] |  |  |  |  | 110 to 112 |  | Emax ([1]; Table 4): 94%; EC50 ([1]; Table 4): 1.07 ± 0.35 µM; EC50 ([2]; Table 4): 0.0155 ± 0.001 µM; Emax ([2]; Table 4): 113% |
| C#CCn1c(=O)c2c(nc(CCc3ccc(CC)cc3)n2CC2CCCC2)n(CCCCP(=O)(O)O)c1=O [B-42, (4-(7-(cyclopentylmethyl)-8-(4-ethylphenethyl)-2,6-dioxo-1-(prop-2-yn-1-yl)-1,2,6,7-tetrahydro-3H-purin-3-yl)butyl)phosphonic acid] |  |  |  |  | 133 to 135 |  | Emax ([3]; Table 3): 92%; EC50 ([3]; Table 3): 0.0125 ± 0.0013 µM |
| C#CCn1c(=O)c2c(nc(CCc3ccccc3I)n2C(C)C)n(CCCCP(=O)(O)O)c1=O [B-47, (4-(8-(2-Iodophenethyl)-7-isopropyl-2,6-dioxo-1-(prop-2-yn-1-yl)-1,2,6,7-tetrahydro-3H-purin-3-yl)butyl)phosphonic acid] |  |  |  |  | 123 to 125 |  | Emax ([1]; Table 4): 97%; EC50 ([1]; Table 4): 0.00685 ± 0.00718 µM; EC50 ([2]; Table 4): 0.00116 ± 0.00026 µM; Emax ([2]; Table 4): 118% |
